≈ marks a conversion by molar mass, not a printed value. Where “and” joins values, the source holds several entries; their conditions need not be identical. Equal entries are not always repeated. One block for each compound: values may come before it.
Key:
Experiment in all cases: ≥ marks a high value that may be exact or a test limit, other limits are often not marked, values filed in µg/mL are converted to µM
[1] = test system: Candida albicans ATCC 14053
[2] = test system: Escherichia coli ATCC 11775
[3] = test system: Micrococcus luteus ATCC 49732
[4] = test system: Staphylococcus aureus ATCC 12600
Escherichia coli MG1655 = test system: Escherichia coli MG1655
[5] = test system: Klebsiella pneumoniae ATCC 700603
[6] = test system: Pseudomonas aeruginosa ATCC 10145
[7] = test system: Staphylococcus aureus ATCC 25923
[8] = test system: Bacillus subtilis ATCC 6633
[9] = test system: Candida albicans ATCC 10231
[10] = test system: Escherichia coli ATCC 25922
Escherichia coli D31 = test system: Escherichia coli D31
[11] = test system: Pseudomonas aeruginosa ATCC 15442
[12] = test system: Pseudomonas aeruginosa PAO1
[13] = test system: Staphylococcus aureus ATCC 43300
Staphylococcus aureus MR = test system: Staphylococcus aureus MR
[14] = test system: Streptococcus mutans ATCC 25175
[15] = test system: Pseudomonas aeruginosa ATCC 47085
Candida albicans MDM8 = test system: Candida albicans MDM8
Escherichia coli SBS 363 = test system: Escherichia coli SBS 363
Micrococcus luteus A270 = test system: Micrococcus luteus A270
[16] = test system: Enterococcus faecalis ATCC 29212
[17] = test system: Pseudomonas aeruginosa ATCC 15422
[18] = test system: Staphylococcus epidermidis KCTC 1917
[19] = test system: Acinetobacter baumannii KCTC 2508
[20] = test system: Klebsiella pneumoniae KCTC 2208
[21] = test system: Pseudomonas aeruginosa ATCC 27853

SMILES: CC(C)[C@H](NC(=O)[C@H](C)NC(=O)[C@@H](NC(=O)CNC(=O)[C@@H]1CCCN1)[C@@H](C)O)C(=O)N[C@@H](Cc1ccccc1)C(=O)N[C@@H](CCCCN)C(=O)O [PGTAVFK]
MIC [1]: ≥ 201 µM | MIC [2]: 31 µM (≈ 22.3 µg/mL) | MIC [3]: 31 µM (≈ 22.3 µg/mL) | MIC [4]: 31 µM (≈ 22.3 µg/mL)

SMILES: CC(C)C[C@H](NC(=O)[C@H](CO)NC(=O)[C@@H](NC(=O)[C@@H](N)CCC(=O)O)C(C)C)C(=O)N[C@@H](CC(N)=O)C(=O)N[C@@H](CO)C(=O)NCC(=O)N[C@@H](Cc1ccc(O)cc1)C(=O)N[C@@H](Cc1ccc(O)cc1)C(=O)O [EVSLNSGYY]
MIC [1]: ≥ 291 µM | MIC [2]: ≥ 97 µM | MIC [3]: ≥ 97 µM | MIC [4]: ≥ 97 µM

SMILES: CC[C@H](C)[C@H](NC(=O)[C@H](CCCN=C(N)N)NC(=O)[C@H](CCC(N)=O)NC(=O)[C@@H](NC(=O)[C@@H](NC(=O)[C@@H](N)CCCN=C(N)N)[C@@H](C)CC)C(C)C)C(=O)N[C@@H](C)C(=O)N[C@@H](CCCCN)C(=O)N[C@@H](Cc1c[nH]c2ccccc12)C(=O)N[C@@H](C)C(=O)N[C@@H](CCCCN)C(=O)N[C@@H](CCCCN)C(=O)N[C@@H](Cc1c[nH]c2ccccc12)C(=O)N[C@@H](Cc1ccc(O)cc1)C(=O)N[C@@H](CCCCN)C(=O)N[C@@H](C)C(=O)NCC(=O)N[C@@H](CCCCN)C(N)=O [RIVQRIAKWAKKWYKAGK]
MIC [15]: ≥ 55 µM | MIC [7]: 13.7 µM (≈ 30.5 µg/mL)

SMILES: CC[C@H](C)[C@H](N)C(=O)N[C@@H](C)C(=O)N[C@@H](CCCN=C(N)N)C(=O)N[C@@H](CCCN=C(N)N)C(=O)N[C@@H](CC(N)=O)C(=O)N[C@@H](CC(C)C)C(=O)N[C@@H](CS)C(=O)N[C@@H](C)C(=O)N[C@@H](CO)C(=O)N[C@@H](CC(C)C)C(=O)N[C@@H](CCCN=C(N)N)C(=O)N[C@@H](C)C(=O)N[C@@H](CCCN=C(N)N)C(=O)N[C@@H](Cc1cnc[nH]1)C(=O)N[C@H](C(=O)N[C@H](C(=O)N1CCC[C@H]1C(=O)N[C@@H](CCC(N)=O)C(=O)N[C@@H](CS)C(=O)N[C@@H](CCCCN)C(=O)N[C@@H](CCCCN)C(=O)N[C@@H](Cc1ccccc1)C(=O)NCC(=O)N[C@@H](CCCN=C(N)N)C(=O)N[C@@H](CCCN=C(N)N)C(N)=O)[C@@H](C)CC)[C@@H](C)O [IARRNLCASLRARHTIPQCKKFGRR]
MIC [19]: 16 µM (≈ 47.2 µg/mL) | MIC [20]: 8 µM (≈ 23.6 µg/mL) | MIC [21]: 8 µM (≈ 23.6 µg/mL)

SMILES: CC[C@H](C)[C@H](N)C(=O)N[C@@H](C)C(=O)N[C@@H](CCCN=C(N)N)C(=O)N[C@@H](CCCN=C(N)N)C(=O)N[C@@H](C)C(=O)N[C@@H](CC(C)C)C(=O)N[C@@H](CCCCN)C(=O)N[C@@H](CCCCN)C(=O)N[C@@H](C)C(=O)N[C@@H](CCCCN)C(=O)N[C@@H](CCCN=C(N)N)C(=O)N[C@@H](C)C(=O)N[C@@H](C)C(=O)N[C@@H](Cc1cnc[nH]1)C(=O)N[C@H](C(=O)N[C@H](C(=O)N1CCC[C@H]1C(=O)N[C@@H](CCC(N)=O)C(=O)N[C@@H](CS)C(=O)N[C@@H](CCCCN)C(=O)N[C@@H](CCCCN)C(=O)N[C@@H](Cc1ccccc1)C(=O)NCC(=O)N[C@@H](CCCN=C(N)N)C(=O)N[C@@H](CCCN=C(N)N)C(N)=O)[C@@H](C)CC)[C@@H](C)O [IARRALKKAKRAAHTIPQCKKFGRR]
MIC [19]: 4 µM (≈ 11.6 µg/mL) | MIC [20]: 4 µM (≈ 11.6 µg/mL) | MIC [21]: 2 µM (≈ 5.81 µg/mL)

SMILES: CC[C@H](C)[C@H](N)C(=O)N[C@@H](C)C(=O)N[C@@H](CCCN=C(N)N)C(=O)N[C@@H](CCCN=C(N)N)C(=O)N[C@@H](C)C(=O)N[C@@H](CC(C)C)C(=O)N[C@@H](CCCCN)C(=O)N[C@@H](CCCCN)C(=O)N[C@@H](CO)C(=O)N[C@@H](CC(C)C)C(=O)N[C@@H](CCCN=C(N)N)C(=O)N[C@@H](C)C(=O)N[C@@H](CCCN=C(N)N)C(=O)N[C@@H](Cc1cnc[nH]1)C(=O)N[C@H](C(=O)N[C@H](C(=O)N1CCC[C@H]1C(=O)N[C@@H](CCC(N)=O)C(=O)N[C@@H](CS)C(=O)N[C@@H](CCCCN)C(=O)N[C@@H](CCCCN)C(=O)N[C@@H](Cc1ccccc1)C(=O)NCC(=O)N[C@@H](CCCN=C(N)N)C(=O)N[C@@H](CCCN=C(N)N)C(N)=O)[C@@H](C)CC)[C@@H](C)O [IARRALKKSLRARHTIPQCKKFGRR]
MIC [19]: 4 µM (≈ 12 µg/mL) | MIC [20]: 4 µM (≈ 12 µg/mL) | MIC [21]: 8 µM (≈ 23.9 µg/mL)

Other lines, results leading:

MIC (Escherichia coli MG1655): 15 µM (≈ 20.9 µg/mL) | MIC [5]: > 15 µM | MIC [6]: 15 µM (≈ 20.9 µg/mL) | MIC [7]: > 15 µM
SMILES: CC(C)C[C@H](NC(=O)[C@H](Cc1c[nH]c2ccccc12)NC(=O)[C@H](Cc1cnc[nH]1)NC(=O)[C@H](CCCCN)NC(=O)[C@H](CC(C)C)NC(=O)[C@H](C)NC(=O)[C@H](CC(C)C)NC(=O)[C@H](CCCCN)NC(=O)CNC(=O)[C@@H](NC(=O)[C@@H](NC(=O)[C@@H](N)CCCCN)[C@@H](C)O)C(C)C)C(=O)O [KTVGKLALKHWL]

MIC [8]: 12.5 µM (≈ 18.1 µg/mL) | MIC [9]: 25 µM (≈ 36.2 µg/mL) | MIC [10]: 6.2 µM (≈ 8.97 µg/mL) | MIC (Escherichia coli D31): 12.5 µM (≈ 18.1 µg/mL) | MIC [11]: 6.2 µM (≈ 8.97 µg/mL) | MIC [12]: 12.5 µM (≈ 18.1 µg/mL) | MIC [7]: 1.6 µM (≈ 2.31 µg/mL) | MIC [13]: 6.2 µM (≈ 8.97 µg/mL) | MIC (Staphylococcus aureus MR): 6.2 µM (≈ 8.97 µg/mL) | MIC [14]: 3.1 µM (≈ 4.49 µg/mL)
SMILES: CC[C@H](C)[C@H](NC(=O)[C@H](CCCCN)NC(=O)[C@H](CCC(N)=O)NC(=O)[C@H](CC(C)C)NC(=O)[C@@H](N)Cc1ccccc1)C(=O)N[C@H](C(=O)NCC(=O)N[C@@H](C)C(=O)N[C@@H](CC(C)C)C(=O)NCC(=O)N[C@@H](CCCCN)C(=O)N[C@@H](CC(C)C)C(=O)N[C@@H](Cc1ccccc1)C(N)=O)[C@@H](C)CC [FLQKIIGALGKLF]

MIC [15]: 27 µM (≈ 63.6 µg/mL) | MIC [7]: 13.6 µM (≈ 32 µg/mL)
SMILES: CC[C@H](C)[C@H](NC(=O)[C@H](CCCN=C(N)N)NC(=O)[C@H](CCC(N)=O)NC(=O)[C@@H](NC(=O)[C@@H](NC(=O)[C@@H](N)CCCN=C(N)N)[C@@H](C)CC)C(C)C)C(=O)N[C@@H](CC(C)C)C(=O)N[C@@H](CCCCN)C(=O)N[C@@H](Cc1c[nH]c2ccccc12)C(=O)N[C@@H](CC(C)C)C(=O)N[C@@H](CCCCN)C(=O)N[C@@H](CCCCN)C(=O)N[C@@H](Cc1c[nH]c2ccccc12)C(=O)N[C@@H](Cc1ccc(O)cc1)C(=O)N[C@@H](CCCCN)C(=O)N[C@@H](CC(C)C)C(=O)NCC(=O)N[C@@H](CCCCN)C(N)=O [RIVQRILKWLKKWYKLGK]

MIC (Candida albicans MDM8): 1.56 µM (≈ 2.01 µg/mL) | MIC (Escherichia coli SBS 363): 12.5 µM (≈ 16.1 µg/mL) | MIC (Micrococcus luteus A270): 1.56 µM (≈ 2.01 µg/mL)
SMILES: CC[C@H](C)[C@H](NC(=O)[C@H](CC(C)C)NC(=O)[C@H](CCCCN)NC(=O)[C@H](CCCN=C(N)N)NC(=O)[C@H](Cc1ccccc1)NC(=O)[C@H](CC(C)C)NC(=O)[C@H](CO)NC(=O)[C@H](CC(C)C)NC(=O)[C@H](CC(C)C)NC(=O)[C@@H](N)CO)C(=O)N[C@H](C(N)=O)[C@@H](C)O [SLLSLFRKLIT]

MIC [9]: > 500 µM | MIC [16]: 422 µM and 405 µM and 252 µM | MIC [10]: > 500 µM | MIC [17]: ≥ 500 µM | MIC [18]: ≥ 267 µM
SMILES: CC(C)C[C@H](NC(=O)CNC(=O)[C@H](Cc1ccc(O)cc1)NC(=O)[C@H](C)NC(=O)[C@@H]1CCCN1C(=O)[C@H](CC(C)C)NC(=O)[C@H](CCC(=O)O)NC(=O)[C@H](Cc1ccccc1)NC(=O)[C@H](Cc1cnc[nH]1)NC(=O)[C@H](CO)NC(=O)[C@@H](N)CCCCN)C(=O)O [KSHFELPAYGL]
